Laboratory results reported in a flash point compilation (Sun et al. 2020).

Row | SMILES | flash point [°C]
1 | Cc1ccc(O)cc1 [p-Cresol] | 94.00
2 | Nc1ccc([N+](=O)[O-])cc1 [p-Nitroaniline] | 199.00
3 | Cc1ccc(N)cc1 [p-Toluidine] | 87.00
4 | Cc1ccc(C)cc1 [p-Xylene] | 27.00
5 | CCCC(C)OC(C)=O (configuration not stated) [sec-Amyl acetate] | 32.00
6 | CCCCC(C)OC(C)=O (configuration not stated) [sec-Hexyl acetate] | 45.00
7 | CC(C)(C)O [tert-Butyl alcohol] | 10.00

Remark: another data set of the same source

Row | SMILES | flash point [°C]
8 | C[Si]1(C)CCCCO1 [1,1 -Dimethyl-1-sila-2-oxacyclohexane] | 14.00
9 | C[SiH](C)O[SiH](C)C [1,1,3,3-Tetramethyldisiloxane] | -22.00
10 | C[Si](Cl)(Cl)CCC#N [2-Cyanoethylmethyldichlorosilane] | 60.00
11 | CCO[Si](CCC#N)(OCC)OCC [2-Cyanoethyltriethoxysilane] | 86.00
12 | CCN(CC)[Si](C)(C)N(CC)CC [Bis(diethylamino)dimethylsilane] | 35.00
13 | Cl[Si](Cl)(Cl)C1CCCCC1 [Cyclohexyltrichlorosilane] | 85.00
14 | Cl[SiH](Cl)C1CCCC1 [Cyclopentyldichlorosilane] | 43.00
15 | C[Si]1(C)O[Si](C)(C)O[Si](C)(C)O[Si](C)(C)O[Si](C)(C)O1 [Decamethylcyclopentasiloxane] | 77.00
16 | CC(C)(C)[Si](C)(Cl)C(C)(C)C [Di-t-butylmethylchlorosilane] | 69.00
17 | C[Si](Cl)(Cl)C(Cl)Cl [Dichloromethylmethyldichlorosilane] | 28.00
18 | CC[SiH2]CC [Diethylsilane] | -20.00
19 | C[SiH](C)c1c(F)c(F)c(F)c(F)c1F [Dimethyl(pentafluorophenyl) silane] | 40.00
20 | C[SiH](C)Cl [Dimethylchlorosilane] | -28.00
21 | Cl[Si](Cl)(c1ccccc1)c1ccccc1 [Diphenyldichlorosilane] | 142.00
22 | CO[Si](OC)(c1ccccc1)c1ccccc1 [Diphenyldimethoxysilane] | 121.00
23 | CC[Si](OC(C)=O)(OC(C)=O)OC(C)=O [Ethyltriacetoxysilane] | 104.00
24 | CCCCCCCCCCCCCCCC[Si](Cl)(Cl)Cl [Hexadecyltrichlorosilane] | 154.00
25 | CCCCCC[Si](OC)(OC)OC [Hexyltrimethoxysilane] | 62.00
26 | CC(C)C[Si](Cl)(Cl)Cl [Isobutyltrichlorosilane] | 37.00
27 | CO[Si](C)(OC)c1ccccc1 [Methyl phenyldimethoxysilane] | 76.00
28 | C[Si](Cl)(c1ccccc1)c1ccccc1 [Methyldiphenylchlorosilane] | 138.00
29 | F[Si](F)(F)c1ccccc1 [Phenyl trifluorosilane] | -5.00
30 | C[Si](C)(Cl)c1ccccc1 [Phenyldimethylchlorosilane] | 61.00
31 | [SiH3]c1ccccc1 [Phenylsilane] | 8.00

Row | SMILES | flash point [°C]
32 | Cl[Si](Cl)(Cl)c1ccccc1 [Phenyltrichlorosilane] | 91.00
33 | CCO[Si](OCC)(OCC)c1ccccc1 [Phenyltriethoxysilane] | 120.00
34 | CCC[Si](O[SiH](C)C)(O[SiH](C)C)O[SiH](C)C [Propyltris(dimethylsiloxy)silane] | 50.00
35 | CCCO[Si](OCCC)(OCCC)OCCC [Tetra-n-propoxysilane] | 95.00
36 | C[Si](C)(C)O[Si](C)(C)O[Si](C)(C)O[Si](C)(C)O[Si](C)(C)O[Si](C)(C)C [Tetradecamethylhexasiloxane] | 102.00
37 | CO[Si](OC)(OC)OC [Tetramethoxysilane] | 21.00
38 | Cl[Si](Cl)(Cl)CCc1ccccc1 [Trichloro(2-phenylethyl)silane] | 91.00
39 | FC(F)(F)CC[Si](Cl)(Cl)Cl [Trichloro(3,3,3-trifluoropropyl)silane] | 15.00
40 | ClC[Si](Cl)(Cl)Cl [Trichloro(Chloromethyl) silane] | 69.00
41 | Clc1cccc([Si](Cl)(Cl)Cl)c1Cl [Trichloro(dichlorophenyl)silane] | 146.00
42 | CC(C)[SiH](C(C)C)C(C)C [Triisopropylsilane] | 37.00
43 | CO[SiH](OC)OC [Trimethoxysilane] | -9.00
44 | C[Si](C)(C)N=C=S [Trimethylsilylisothiocyanate] | 35.00
45 | CN(C)[SiH](N(C)C)N(C)C [Tris(dimethylamino)silane] | 25.00
46 | C=C[Si](OC(C)=O)(OC(C)=O)OC(C)=O [Vinyltriacetoxysilane] | 88.00
47 | C=C[Si](OCCOC)(OCCOC)OCCOC [Vinyltris(methoxyethoxy)silane] | 80.00
48 | C[Si](C)(C)CCOCCl [[2-(chloromethoxy)ethyl]trimethylsilane] | 46.00
49 | CCO[Si](CCCS)(OCC)OCC [[3-(mercapto)propyl]triethoxysilane] | 87.78
50 | CCCC[Si](Cl)(Cl)Cl [n-Butyltrichlorosilane] | 54.00
51 | CCCCCCCCCC[Si](C)(Cl)Cl [n-Decylmethyldichlorosilane] | 120.00
52 | CCCCCCCCCCCC[Si](Cl)(Cl)Cl [n-Dodecyltrichlorosilane] | 162.00
53 | CCCCCCCC[Si](Cl)(Cl)Cl [n-Octyltrichlorosilane] | 96.00
54 | CCC[Si](C)(Cl)Cl [n-Propylmethyldichlorosilane] | 27.00
55 | CCC[Si](OC)(OC)OC [n-Propyltrimethoxysilane] | 25.00

Next, values leading:

Row | flash point [°C] | SMILES
56 | 25.00 | C=CC=CO[Si](C)(C)C [1-(Trimethylsiloxy)-1,3-butadiene]
57 | 74.00 | C[Si](C)(C)O[Si](C)(C)O[Si](C)(C)O[Si](C)(C)Cl [1-Chlorononamethyltetrasiloxane]
58 | 42.00 | CCCCCC#C[Si](C)(C)C [1-Heptynyltrimethylsilane]
59 | 112.00 | C=C[Si]1(C)O[Si](C)(C=C)O[Si](C)(C=C)O[Si](C)(C=C)O1 (configuration not stated) [2,4,6,8-Tetravinyl-2,4,6,8-tetramethylcyclotetrasiloxane]
60 | 43.00 | C=C(CCl)C[Si](C)(C)C [2-Chloromethyl-3-trimethylsilyl-1-propene]
61 | 26.00 | C[Si](C)(C)C1C=CCC1 (configuration not stated) [3-(Trimethylsilyl)cyclopentene]
62 | 75.00 | CO[Si](CCCCl)(OC)OC [3-Chloropropyltrimethoxysilane]
63 | 0.00 | C=CCO[Si](C)(C)C [Allyloxytrimethylsilane]
64 | 62.00 | C[Si](C)(C)Cc1ccccc1 [Benzyltrimethylsilane]
65 | -7.00 | CN(C)[Si](C)(C)N(C)C [Bis(dimethylamino)dimethylsilane]
66 | 41.00 | C[Si](C)(Cl)CBr [Bromomethyldimethylchlorosilane]
67 | 20.00 | C[Si](C)(Cl)CCC(F)(F)F [Chlorodimethyl(3,3,3-trifluoropropyl) silane]
68 | 29.00 | C[Si](C)(C)C1C=CC=C1 [Cyclopentadienyltrimethylsilane]
69 | -16.00 | C[Si](C)(Cl)Cl [Dimethyldichlorosilane]
70 | 11.00 | CCO[Si](C)(C)OCC [Dimethyldiethoxysilane]
71 | -8.00 | CO[Si](C)(C)OC [Dimethyldimethoxysilane]
72 | 8.00 | C=C[Si](C)(C)C=C [Divinyldimethylsilane]
73 | 79.00 | C[Si](C)(C)O[Si](C)(C)O[Si](C)(C)O[Si](C)(C)O[Si](C)(C)C [Dodecamethylpentasiloxane]
74 | -4.00 | CC[Si](C)(C)Cl [ETHYLDIMETHYLCHLOROSILANE]

Row | flash point [°C] | SMILES
75 | -27.00 | CCO[Si](C)(C)C [Ethoxytrimethylsilane]
76 | 27.00 | CN([Si](C)(C)C)[Si](C)(C)C [Heptamethyldisilazane]
77 | 32.00 | C[Si]1(C)O[Si](C)(C)O[Si](C)(C)O1 [Hexamethylcyclotrisiloxane]
78 | -1.00 | C[Si](C)(C)[Si](C)(C)C [Hexamethyldisilane]
79 | 8.00 | C[Si](C)(C)N[Si](C)(C)C [Hexamethyldisilazane]
80 | 24.00 | CCO[Si](C)(OCC)OCC [Methyltriethoxysilane]
81 | 11.00 | CO[Si](C)(OC)OC [Methyltrimethoxysilane]
82 | 30.00 | C[Si](C)(C)O[Si](C)(C)O[Si](C)(C)C [Octamethyltrisiloxane]
83 | -19.00 | C[SiH](C)O[Si](C)(C)C [Pentamethyldisiloxane]
84 | 27.00 | C#CCO[Si](C)(C)C [Propargyloxytrimethylsilane]
85 | -28.00 | C[Si](C)(C)C [Tetramethylsilane]
86 | -3.00 | C[Si](C)(C)Br [Trimethyl bromosilane]
87 | 10.00 | CCCO[Si](C)(C)C [Trimethyl-n-propoxysilane]
88 | -35.00 | C[Si](C)(C)F [Trimethylfluorosilane]
89 | 50.00 | C[Si](C)(C)O[SiH](O[Si](C)(C)C)O[Si](C)(C)C [Tris(trimethylsiloxy)silane]
90 | 15.00 | C=C[Si](C)(CC)CC [Vinyldiethylmethylsilane]
91 | 34.00 | C=C[Si](OCC)(OCC)OCC [Vinyltriethoxysilane]
92 | 97.00 | CCCCCCCC[Si](C)(C)Cl [n-Octyldimethylchlorosilane]
